# Measurements reported in ChEMBL document CHEMBL1201862, “PubChem BioAssay data set” (2004).
# Calls of active or inactive are those of the source.
# How the values were obtained:
# [1] = molecular target: Nuclear receptor subfamily 5 group A member 2 (Homo sapiens, UniProt O00482); type: functional, cell-based;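 further: HEK293T cells transfected with LRH-1 and a StAR promoter luciferase reporter; potency for inhibitors that lower LRH-1 driven reporter light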
# Steroidogenic factor 1 = Steroidogenic factor 1 (Homo sapiens, UniProt Q13285); test: Counterscreen for inverse agonists of the liver receptor homolog-1 (LRH-1; NR5A2): Luminescence-based cell-based high throughput dose response assay to identify inverse agonists of the Steroidogenic Factor 1 Nuclear Receptor (SF1; NR5A1).; type: functional
# Sequence of Steroidogenic factor 1 (Q13285 whole entry): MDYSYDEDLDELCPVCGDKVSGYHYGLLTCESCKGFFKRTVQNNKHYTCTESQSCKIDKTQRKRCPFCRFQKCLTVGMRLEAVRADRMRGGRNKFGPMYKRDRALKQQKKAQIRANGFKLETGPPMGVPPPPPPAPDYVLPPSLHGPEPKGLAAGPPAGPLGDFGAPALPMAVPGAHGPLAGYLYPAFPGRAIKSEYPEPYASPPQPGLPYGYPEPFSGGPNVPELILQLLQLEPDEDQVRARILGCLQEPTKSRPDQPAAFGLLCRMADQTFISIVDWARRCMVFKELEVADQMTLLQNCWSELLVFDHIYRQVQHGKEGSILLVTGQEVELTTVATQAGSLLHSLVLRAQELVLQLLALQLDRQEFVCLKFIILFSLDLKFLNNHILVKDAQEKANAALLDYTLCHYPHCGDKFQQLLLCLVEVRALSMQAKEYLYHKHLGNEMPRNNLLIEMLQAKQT
# [2] = StAR promoter reporter inhibition counter-screen, dose response, counter-screen for LRH-1 inverse agonist project, cell-based, luminescence, luciferase reporter (AID 651969); type: functional
# [3] = molecular target: T1, Low molecular weight phosphotyrosine protein phosphatase (Homo sapiens, UniProt P24666); type: functional; conditions: read-out: IC50_Mean
# T1 sequence (P24666 whole entry): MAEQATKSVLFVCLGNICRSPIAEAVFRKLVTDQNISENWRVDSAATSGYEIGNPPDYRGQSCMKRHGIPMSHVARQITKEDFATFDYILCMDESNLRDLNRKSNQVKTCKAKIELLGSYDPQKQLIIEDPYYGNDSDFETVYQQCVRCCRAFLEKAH
# [4] = molecular target: T1, Low molecular weight phosphotyrosine protein phosphatase; type: functional; conditions: read-out: IC50_Mean; remark: listed apart in the source
# [5] = HEp-2 cell cytotoxicity, dose response, cytotoxicity control for RSV inhibitor project, HTS (AID 2410); type: functional; conditions: human respiratory syncytial virus
# cells [6] = test: cells
# [7] = molecular target: T2, DNA repair and recombination protein RAD54-like (Homo sapiens, UniProt Q92698); test: inhibitors of human RAD54 branch migration, confirmation, biochemical, fluorescence, cherry-picked samples, dose series (AID 651657); type: functional
# T2 sequence (Q92698 whole entry): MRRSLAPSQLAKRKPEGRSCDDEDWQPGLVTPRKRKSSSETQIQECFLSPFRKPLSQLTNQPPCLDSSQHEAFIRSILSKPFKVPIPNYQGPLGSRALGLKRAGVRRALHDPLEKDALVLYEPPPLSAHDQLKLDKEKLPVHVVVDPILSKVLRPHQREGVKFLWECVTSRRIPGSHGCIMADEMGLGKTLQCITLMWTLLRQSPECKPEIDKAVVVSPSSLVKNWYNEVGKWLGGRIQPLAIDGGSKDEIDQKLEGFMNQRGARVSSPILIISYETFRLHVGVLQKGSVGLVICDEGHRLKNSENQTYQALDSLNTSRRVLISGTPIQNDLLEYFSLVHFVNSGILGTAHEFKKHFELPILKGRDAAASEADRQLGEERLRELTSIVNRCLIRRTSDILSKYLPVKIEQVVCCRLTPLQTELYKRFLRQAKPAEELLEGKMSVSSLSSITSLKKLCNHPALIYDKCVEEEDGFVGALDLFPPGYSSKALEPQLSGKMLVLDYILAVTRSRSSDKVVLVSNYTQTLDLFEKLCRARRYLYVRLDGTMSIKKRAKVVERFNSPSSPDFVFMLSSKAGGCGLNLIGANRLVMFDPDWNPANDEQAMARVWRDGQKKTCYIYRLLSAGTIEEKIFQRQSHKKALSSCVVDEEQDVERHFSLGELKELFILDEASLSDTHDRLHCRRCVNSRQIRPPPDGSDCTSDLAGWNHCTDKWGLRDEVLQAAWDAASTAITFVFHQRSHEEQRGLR
# [8] = molecular target: T3, Corticotropin-releasing factor receptor 2/Corticotropin-releasing factor-binding protein (Homo sapiens, UniProt P24387+Q13324); test: Dose Response confirmation of uHTS hits for small molecule antagonists of the CRF-binding protein and CRF-R2 receptor complex.; type: functional; conditions: read-out: IC50_Mean
# T3 sequence (Q13324 whole entry): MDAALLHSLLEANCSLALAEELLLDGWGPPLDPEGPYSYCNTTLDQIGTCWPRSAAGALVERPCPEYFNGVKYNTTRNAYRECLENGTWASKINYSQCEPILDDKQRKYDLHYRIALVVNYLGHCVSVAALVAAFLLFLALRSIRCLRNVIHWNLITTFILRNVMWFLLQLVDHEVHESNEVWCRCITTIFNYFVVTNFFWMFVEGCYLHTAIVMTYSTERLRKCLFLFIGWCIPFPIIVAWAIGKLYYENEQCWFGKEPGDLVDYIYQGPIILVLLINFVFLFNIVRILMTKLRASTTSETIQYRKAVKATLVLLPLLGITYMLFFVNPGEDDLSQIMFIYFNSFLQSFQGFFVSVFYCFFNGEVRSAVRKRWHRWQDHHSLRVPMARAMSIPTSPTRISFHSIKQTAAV
# T3 sequence (P24387 whole entry): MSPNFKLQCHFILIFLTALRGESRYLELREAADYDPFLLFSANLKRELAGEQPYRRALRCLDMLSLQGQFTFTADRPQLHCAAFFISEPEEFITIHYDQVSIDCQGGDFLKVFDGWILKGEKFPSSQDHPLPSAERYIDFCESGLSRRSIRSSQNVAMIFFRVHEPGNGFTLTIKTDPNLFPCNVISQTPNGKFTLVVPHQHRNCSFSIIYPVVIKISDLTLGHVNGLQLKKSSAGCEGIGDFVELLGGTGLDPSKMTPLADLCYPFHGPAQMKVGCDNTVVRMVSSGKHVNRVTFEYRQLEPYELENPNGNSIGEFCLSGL
# Aminopeptidase N = molecular target: T4, Aminopeptidase N (Plasmodium falciparum FcB1/Columbia, UniProt O96935); test: P. falciparum M1AAP inhibitors, biochemical, fluorogenic H-Leu-NHMec substrate, 1536-well (AID 1445); set-up: species or system Plasmodium falciparum 3D7, 3D7
# T4 sequence (O96935 whole entry): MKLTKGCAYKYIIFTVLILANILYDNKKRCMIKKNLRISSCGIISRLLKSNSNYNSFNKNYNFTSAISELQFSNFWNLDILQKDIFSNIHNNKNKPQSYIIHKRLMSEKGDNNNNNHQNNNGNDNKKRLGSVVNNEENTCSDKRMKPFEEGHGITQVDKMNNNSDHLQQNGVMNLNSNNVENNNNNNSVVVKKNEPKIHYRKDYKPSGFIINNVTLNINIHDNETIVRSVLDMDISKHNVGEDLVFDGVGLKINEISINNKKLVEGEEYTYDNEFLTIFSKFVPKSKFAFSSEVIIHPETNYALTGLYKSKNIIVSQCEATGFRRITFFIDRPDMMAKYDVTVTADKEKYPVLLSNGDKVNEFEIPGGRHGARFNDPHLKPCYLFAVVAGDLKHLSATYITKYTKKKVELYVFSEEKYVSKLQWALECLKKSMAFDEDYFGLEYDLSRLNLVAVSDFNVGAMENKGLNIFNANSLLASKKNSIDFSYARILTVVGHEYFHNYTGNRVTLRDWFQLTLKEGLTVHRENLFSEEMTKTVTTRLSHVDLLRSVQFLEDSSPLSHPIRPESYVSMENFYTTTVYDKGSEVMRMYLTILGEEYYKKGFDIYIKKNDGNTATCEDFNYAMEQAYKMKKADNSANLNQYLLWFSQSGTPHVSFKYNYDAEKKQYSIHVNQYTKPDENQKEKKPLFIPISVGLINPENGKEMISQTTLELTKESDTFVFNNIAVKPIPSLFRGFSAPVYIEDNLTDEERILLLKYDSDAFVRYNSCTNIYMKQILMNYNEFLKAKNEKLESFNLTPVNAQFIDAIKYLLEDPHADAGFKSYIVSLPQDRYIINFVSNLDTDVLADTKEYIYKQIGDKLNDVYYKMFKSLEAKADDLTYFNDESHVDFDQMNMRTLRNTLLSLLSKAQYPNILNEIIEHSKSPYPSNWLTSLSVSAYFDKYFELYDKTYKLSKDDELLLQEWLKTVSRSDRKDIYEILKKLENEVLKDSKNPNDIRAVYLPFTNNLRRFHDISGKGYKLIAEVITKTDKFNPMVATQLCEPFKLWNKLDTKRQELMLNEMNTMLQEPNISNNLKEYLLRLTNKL
# [9] = CRF-BP/CRF-R2 complex antagonists, dose response, cell-based, uHTS hits, 384-well (AID 651639); type: functional, Homo sapiens; conditions: read-out: IC50_Mean
# [10] = molecular target: T5, High affinity choline transporter 1 (Homo sapiens, UniProt Q9GZV3); test: CHT inhibitors, dose response, cell-based, 5-point CRC, membrane potential dye (AID 504840); type: functional
# T5 sequence (Q9GZV3 whole entry): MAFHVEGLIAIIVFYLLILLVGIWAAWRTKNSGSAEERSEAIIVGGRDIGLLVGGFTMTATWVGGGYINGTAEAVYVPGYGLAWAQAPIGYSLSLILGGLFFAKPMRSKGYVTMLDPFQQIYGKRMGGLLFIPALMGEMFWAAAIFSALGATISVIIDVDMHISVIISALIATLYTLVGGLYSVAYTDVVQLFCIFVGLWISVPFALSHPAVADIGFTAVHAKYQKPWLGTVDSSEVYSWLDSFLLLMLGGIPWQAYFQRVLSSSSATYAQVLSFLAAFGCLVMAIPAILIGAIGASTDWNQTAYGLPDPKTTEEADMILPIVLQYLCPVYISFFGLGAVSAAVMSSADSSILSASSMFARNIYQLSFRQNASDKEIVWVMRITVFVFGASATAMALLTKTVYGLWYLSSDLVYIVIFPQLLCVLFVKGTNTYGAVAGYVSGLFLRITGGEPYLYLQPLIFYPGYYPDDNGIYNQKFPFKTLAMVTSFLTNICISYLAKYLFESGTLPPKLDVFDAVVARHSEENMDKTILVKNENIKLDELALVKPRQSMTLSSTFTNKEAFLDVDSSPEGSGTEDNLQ
# [11] = molecular target: T3, Corticotropin-releasing factor receptor 2/Corticotropin-releasing factor-binding protein; test: activators of CRF receptor 2 with binding protein – uHTS hits, confirmation (AID 602473); type: functional; conditions: read-out: EC50_Mean
# cells [12] = type: functional, cell-based
# cells [13] = type: functional, cell-based; remark: listed apart in the source
# Sequence of Nuclear receptor subfamily 5 group A member 2 (O00482 whole entry): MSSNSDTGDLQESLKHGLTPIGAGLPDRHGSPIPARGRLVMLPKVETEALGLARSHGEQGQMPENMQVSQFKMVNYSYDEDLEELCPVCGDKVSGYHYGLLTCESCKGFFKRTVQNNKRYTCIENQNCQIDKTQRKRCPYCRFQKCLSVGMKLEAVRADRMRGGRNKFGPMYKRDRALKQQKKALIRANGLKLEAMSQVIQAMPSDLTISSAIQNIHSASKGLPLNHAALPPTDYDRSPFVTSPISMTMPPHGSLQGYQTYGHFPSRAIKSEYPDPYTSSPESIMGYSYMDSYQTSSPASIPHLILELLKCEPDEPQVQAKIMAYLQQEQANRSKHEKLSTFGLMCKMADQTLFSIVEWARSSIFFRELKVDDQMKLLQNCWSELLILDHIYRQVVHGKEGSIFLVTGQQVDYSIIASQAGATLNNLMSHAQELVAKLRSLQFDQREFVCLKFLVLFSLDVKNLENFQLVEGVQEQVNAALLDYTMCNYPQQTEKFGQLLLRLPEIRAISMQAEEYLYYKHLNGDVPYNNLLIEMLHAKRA
structure (smiles),measurement,setting,value
O=C(COC(=O)c1ccc(Br)cc1)Nc1ccccc1Br,IC50,[1],35.9 µM (inactive)
same,IC50,Steroidogenic factor 1,35.9 µM (inactive)
same,IC50,[2],35.9 µM (inactive)
O=C(O)c1cccc(NC(=O)c2cn(-c3ccccc3)nc2-c2cc3ccccc3o2)c1,IC50,[3],18 µM (active)
same,IC50,[4],43 µM (inactive)
same,CC50,[5],33 µM (active)
same,IC50,cells [6],20.9 µM (active)
CCN1CCN(C(S)=Nc2ccc3nc(N4CCN(CC)CC4)cc(C)c3c2)CC1,AC50,[7],95 µM (active)
O=C(Nc1cc(S(=O)(=O)N2CCCCC2)ccc1O)c1ccccc1NS(=O)(=O)c1ccc(F)c(F)c1,IC50,[8],5.71 µM (active)
same,IC50,Aminopeptidase N,69.4 µM (active)
same,IC50,[9],> 20 µM (inactive)
same,IC50,[10],12.6 µM (active)
same,EC50,[11],7.48 µM (active)
O=C(N[C@H](C(=O)N1CCC[C@H]1C(=O)NCCc1ccccc1Cl)C1CCCCC1)c1cccs1,EC50,cells [12],> 29.9 µM (inactive)
same,IC50,cells [13],> 29.9 µM (inactive)
